Measured values: US20090192176A1, “1H-PYRAZOLO[3,4-D]PYRIMIDINE, PURINE, 7H-PURIN-8(9H)-ONE, 3H-[1,2,3]TRIAZOLO[4,5-D]PYRIMIDINE, AND THIENO[3,2-D]PYRIMIDINE COMPOUNDS, THEIR USE AS mTOR KINASE AND PI3 KINASE INHIBITORS, AND THEIR SYNTHESES” (Wyeth, priority 2008, published 2009)

Key:
Format in all cases: biochemical
PI3 Kinase γ = PI3 Kinase γ (Homo sapiens, UniProt P48736); assay: Fluorescence polarization assay for PI3K
Description: (§1) Fluorescence Polarization Assay for PI3K
(§2) This assay is used to determine the IC50 of compounds of the present invention as it identifies inhibitors of PI3 kinase by measuring inhibition.
(§3) Reaction Buffer: 20 mM HEPES, pH 7.5, 2 mM MgCl2, 0.05% CHAPS; and 0.01% BME (added fresh) Stop/Detection Buffer: 100 mM HEPES, pH 7.5, 4 mM EDTA, 0.05% CHAPS; ATP 20 mM in water; PIP2 (diC8, cat# P-4508) 1 mM in water (MW=856.5); GST-GRP 1.75 mg/mL or 1.4 mg/mL in 10% glycerol; Red detector (TAMRA) 2.5 μM; Plate: Nunc 384 well black polypropylene fluorescence plate.
(§4) The assay is run by placing 5 μL of diluted enzyme per well, then 5 μL of diluted compound (or 9.5 μL enzyme then 0.5 μL compound in DMSO) is added and mixed. Then, 10 μL substrate is added to start the reaction. The samples are incubated 30-60 minutes, then the reaction is stopped by adding 20 μL stop/detector mix. PI3K is diluted with reaction buffer (e.g., 5 μL or 7.5 μL PI3K into 620 μL reaction buffer), and 5 μL of diluted enzyme is used per well. 5 μL reaction buffer or drug diluted in buffer (e.g., 4 μL/100 so final DMSO is 1% in reaction) is added to each. Pipetting up and down mixes the samples. Alternatively, the enzyme can be diluted to 1215 μL. In this case 9.8 μL is added per well and 0.2 μL compound is added in DMSO. To prepare 1 mL of substrate solution, 955 μL reaction buffer, 40 μL PIP2, and 2.5 μL ATP are mixed. 10 μL of substrate is added to each well to start the reaction.
(§5) Stop/detector mix is prepared by mixing 4 μL Red detector and 1.6 μL or 2.0 μL GST-GRP with 1 mL Stop buffer, which results in 10 nM probe and 70 nM GST-GRP). 20 μL of the stop/detector mix is added to each well to stop the reaction. The plates are read after 30-90 minutes keeping the red probe solutions dark. For the zero time point, stop/detector mix is added to the enzyme just before adding substrate. For an extra control, stop/detector mix is added to buffer (no enzyme) and substrate or to just buffer (no substrate). […] The recommended reaction has 0.06 μL per 20 μL (0.015 μg/20 μL) or 0.01125 μg/15 μL or 0.75 μg/mL. Plates are read on machines with filters for Tamra. The units are mP with no enzyme controls reading app 190-220 mP units. Fully active enzyme reduces fluorescence polarization down to 70-100 mP after 30 minutes. An active compound raises the mP values halfway to control or to 120-150 mP units.

PI3 Kinase α = PI3 Kinase α (Homo sapiens, UniProt P42336); assay: Fluorescence polarization assay for PI3K
Sequence of PI3 Kinase α (P42336 whole entry): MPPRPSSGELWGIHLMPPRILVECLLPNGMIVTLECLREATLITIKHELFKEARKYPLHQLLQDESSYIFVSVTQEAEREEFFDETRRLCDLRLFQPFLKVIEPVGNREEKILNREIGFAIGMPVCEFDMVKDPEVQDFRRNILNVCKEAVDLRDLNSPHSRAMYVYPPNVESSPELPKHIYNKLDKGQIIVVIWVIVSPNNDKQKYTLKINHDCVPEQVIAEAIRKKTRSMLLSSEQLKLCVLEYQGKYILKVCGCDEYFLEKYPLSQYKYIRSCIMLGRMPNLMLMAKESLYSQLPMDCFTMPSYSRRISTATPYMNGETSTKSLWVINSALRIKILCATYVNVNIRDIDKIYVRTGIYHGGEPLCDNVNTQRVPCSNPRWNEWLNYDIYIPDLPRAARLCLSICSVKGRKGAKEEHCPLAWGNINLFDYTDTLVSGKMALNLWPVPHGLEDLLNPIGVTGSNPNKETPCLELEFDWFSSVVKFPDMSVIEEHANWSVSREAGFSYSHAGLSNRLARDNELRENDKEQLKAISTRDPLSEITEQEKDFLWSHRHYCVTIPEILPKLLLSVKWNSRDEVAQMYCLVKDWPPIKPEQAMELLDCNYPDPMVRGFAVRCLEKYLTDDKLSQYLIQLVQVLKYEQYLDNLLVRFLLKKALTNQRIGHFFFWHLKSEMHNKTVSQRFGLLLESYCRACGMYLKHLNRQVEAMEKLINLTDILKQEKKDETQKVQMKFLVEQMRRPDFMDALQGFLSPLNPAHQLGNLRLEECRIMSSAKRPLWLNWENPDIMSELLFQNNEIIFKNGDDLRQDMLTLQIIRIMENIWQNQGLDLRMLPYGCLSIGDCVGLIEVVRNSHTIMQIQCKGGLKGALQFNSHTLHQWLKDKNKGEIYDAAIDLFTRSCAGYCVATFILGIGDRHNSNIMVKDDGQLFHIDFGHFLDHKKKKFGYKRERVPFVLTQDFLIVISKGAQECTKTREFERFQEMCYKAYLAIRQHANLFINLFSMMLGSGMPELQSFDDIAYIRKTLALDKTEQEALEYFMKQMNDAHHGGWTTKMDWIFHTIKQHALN
Sequence of PI3 Kinase α (P27986 whole entry partner): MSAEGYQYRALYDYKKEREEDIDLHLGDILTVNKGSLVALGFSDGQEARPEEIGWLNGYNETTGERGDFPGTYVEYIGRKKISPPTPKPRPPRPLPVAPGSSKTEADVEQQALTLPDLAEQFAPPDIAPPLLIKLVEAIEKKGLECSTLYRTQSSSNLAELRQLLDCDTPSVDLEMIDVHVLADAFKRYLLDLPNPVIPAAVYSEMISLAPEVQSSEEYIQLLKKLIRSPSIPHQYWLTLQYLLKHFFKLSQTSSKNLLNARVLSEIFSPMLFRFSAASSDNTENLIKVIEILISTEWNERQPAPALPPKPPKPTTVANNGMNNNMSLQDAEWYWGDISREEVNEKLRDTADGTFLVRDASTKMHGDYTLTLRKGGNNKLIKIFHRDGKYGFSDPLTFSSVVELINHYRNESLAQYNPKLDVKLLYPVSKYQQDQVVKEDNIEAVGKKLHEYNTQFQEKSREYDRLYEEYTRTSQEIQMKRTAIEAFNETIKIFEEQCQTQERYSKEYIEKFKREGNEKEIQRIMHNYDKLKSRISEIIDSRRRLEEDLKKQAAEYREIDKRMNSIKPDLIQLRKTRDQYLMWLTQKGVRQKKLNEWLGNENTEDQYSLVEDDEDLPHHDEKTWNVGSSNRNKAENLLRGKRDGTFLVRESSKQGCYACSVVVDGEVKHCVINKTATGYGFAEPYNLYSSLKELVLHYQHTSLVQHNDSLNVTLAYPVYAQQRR
Description: as §1, §2, §3, §4, §5

Human mTOR = target: T1, Human mTOR (Homo sapiens, UniProt P42345); assay: mTOR kinase assay (DELFIA format, purified enzyme); settings: His6-S6K substrate, read-out: TOR Kinase IC50
T1 construct: FLAG
Description: mTOR Kinase Assay Methods
Human mTOR assays (See Toral-Barza, et al. Biochem Biophys. Res. Commun. 2005 Jun. 24; 332(1):304-10) with purified enzyme are performed in 96-well plates by DELFIA format as follows. Enzymes are first diluted in kinase assay buffer (10 mM HEPES (pH 7.4), 50 mM NaCl, 50 mM β-glycerophosphate, 10 mM MnCl2, 0.5 mM DTT, 0.25 mM microcystin LR, and […]). To each well, 12 μL of the diluted enzyme is mixed briefly with 0.5 μL test inhibitor or control vehicle dimethylsulfoxide (DMSO). The kinase reaction is initiated by adding 12.5 μL kinase assay buffer containing ATP and His6-S6K to give a final reaction volume of 25 μL containing 800 ng/mL FLAG-TOR, […] and […]. The reaction plate is incubated for 2 hours (linear at 1-6 hours) at room temperature with gentle shaking and then terminated by adding 25 μL Stop buffer (20 mM HEPES (pH 7.4), 20 mM EDTA, 20 mM EGTA). The DELFIA detection of the phosphorylated (Thr-389) His6-S6K is performed at room temperature using a monoclonal anti-P(T389)-p70S6K antibody (1A5, Cell Signaling) labeled with Europium-N1-ITC (Eu) (10.4 Eu per antibody, PerkinElmer). The DELFIA Assay buffer and Enhancement solution can be purchased from PerkinElmer. 45 μL of the terminated kinase reaction mixture is transferred to a MaxiSorp plate (Nunc) containing 55 μL PBS. The His6-S6K is allowed to attach for 2 hours after which the wells are aspirated and washed once with PBS. 100 μL of DELFIA Assay buffer with 40 ng/mL Eu-P(T389)-S6K antibody is added. The antibody binding is continued for 1 hour with gentle agitation. The wells are then aspirated and washed 4 times with PBS containing 0.05% Tween-20 (PBST). 100 μL of DELFIA Enhancement solution is added to each well and the plates are read in a PerkinElmer Victor model plate reader. Data obtained is used to calculate enzymatic activity and enzyme inhibition by potential inhibitors.

Sequence of PI3 Kinase γ (P48736 whole entry): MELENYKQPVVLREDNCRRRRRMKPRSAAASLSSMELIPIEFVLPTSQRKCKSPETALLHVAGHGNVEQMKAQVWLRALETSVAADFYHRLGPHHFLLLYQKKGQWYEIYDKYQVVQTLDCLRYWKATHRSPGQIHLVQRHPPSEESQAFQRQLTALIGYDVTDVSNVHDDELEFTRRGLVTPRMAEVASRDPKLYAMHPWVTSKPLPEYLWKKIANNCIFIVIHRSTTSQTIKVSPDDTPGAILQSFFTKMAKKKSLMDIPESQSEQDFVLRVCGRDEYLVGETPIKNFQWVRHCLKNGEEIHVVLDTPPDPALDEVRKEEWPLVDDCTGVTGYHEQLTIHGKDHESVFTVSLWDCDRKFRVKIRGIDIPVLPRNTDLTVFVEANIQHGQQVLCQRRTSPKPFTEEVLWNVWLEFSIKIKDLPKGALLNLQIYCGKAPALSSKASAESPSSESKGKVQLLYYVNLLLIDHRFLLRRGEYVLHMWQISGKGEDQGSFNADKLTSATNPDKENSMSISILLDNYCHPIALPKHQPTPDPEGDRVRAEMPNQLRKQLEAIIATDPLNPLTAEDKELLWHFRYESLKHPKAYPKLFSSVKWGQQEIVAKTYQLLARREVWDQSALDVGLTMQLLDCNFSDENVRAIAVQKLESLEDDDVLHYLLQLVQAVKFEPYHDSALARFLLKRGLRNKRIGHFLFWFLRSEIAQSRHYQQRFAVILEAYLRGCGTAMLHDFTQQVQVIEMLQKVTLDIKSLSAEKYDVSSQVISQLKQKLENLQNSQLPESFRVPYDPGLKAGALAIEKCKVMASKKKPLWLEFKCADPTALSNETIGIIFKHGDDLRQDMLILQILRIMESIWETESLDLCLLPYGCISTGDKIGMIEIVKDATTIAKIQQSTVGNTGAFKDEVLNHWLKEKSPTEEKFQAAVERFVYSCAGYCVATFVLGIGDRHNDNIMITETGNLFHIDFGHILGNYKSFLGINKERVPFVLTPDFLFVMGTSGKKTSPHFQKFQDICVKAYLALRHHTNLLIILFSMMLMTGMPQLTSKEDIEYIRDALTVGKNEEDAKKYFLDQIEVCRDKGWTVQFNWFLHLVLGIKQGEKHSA

An IC50 (PI3 Kinase γ) of 2.49 µM, an IC50 (PI3 Kinase α) of 0.525 µM and an IC50 (Human mTOR) of 2.4 µM were found for `Oc1cncc(-c2nc(C3=CCOCC3)c3ncn(C4CCN(Cc5cccnc5)CC4)c3n2)c1` [Compound 29, 5-{6-(3,6-dihydro-2H-pyran-4-yl)-9-[1-(pyridin-3-ylmethyl)piperidin-4-yl]-9H-purin-2-yl}pyridin-3-ol] in this work.
An IC50 (PI3 Kinase γ) of 2.47 µM, an IC50 (PI3 Kinase α) of 0.275 µM and an IC50 (Human mTOR) of 2 µM were found for `Oc1cncc(-c2nc(C3=CCOCC3)c3ncn(C4CCN(Cc5ccc(Br)nc5)CC4)c3n2)c1` [Compound 30, 5-[9-{1-[(6-bromopyridin-3-yl)methyl]piperidin-4-yl}-6-(3,6-dihydro-2H-pyran-4-yl)-9H-purin-2-yl]pyridin-3-ol] in this work.
An IC50 (PI3 Kinase γ) of 2.99 µM, an IC50 (PI3 Kinase α) of 0.619 µM and an IC50 (Human mTOR) of 1.6 µM were found for `Oc1cncc(-c2nc(C3=CCOCC3)c3ncn(C4CCN(Cc5ccccn5)CC4)c3n2)c1` [Compound 31, 5-{6-(3,6-dihydro-2H-pyran-4-yl)-9-[1-(pyridin-2-ylmethyl)piperidin-4-yl]-9H-purin-2-yl}pyridin-3-ol] in this work.
An IC50 (PI3 Kinase γ) of 2.53 µM, an IC50 (PI3 Kinase α) of 0.858 µM and an IC50 (Human mTOR) of 1.7 µM were found for `COc1ccc(CN2CCC(n3cnc4c(C5=CCOCC5)nc(-c5cncc(O)c5)nc43)CC2)cn1` [Compound 32, 5-[6-(3,6-dihydro-2H-pyran-4-yl)-9-{1-[(6-methoxypyridin-3-yl)methyl]piperidin-4-yl}-9H-purin-2-yl]pyridin-3-ol] in this work.
An IC50 (PI3 Kinase γ) of 0.385 µM, an IC50 (PI3 Kinase α) of 0.265 µM and an IC50 (Human mTOR) of 12 µM were found for `Oc1cncc(-c2nc(C3=CCOCC3)c3ncn(C4CCN(Cc5c[nH]c6ccc(F)cc56)CC4)c3n2)c1` [Compound 33, 5-[6-(3,6-dihydro-2H-pyran-4-yl)-9-{1-[(5-fluoro-1H-indol-3-yl)methyl]piperidin-4-yl}-9H-purin-2-yl]pyridin-3-ol] in this work.
An IC50 (PI3 Kinase γ) of 1.5 µM, an IC50 (PI3 Kinase α) of 0.526 µM and an IC50 (Human mTOR) of 13 µM were found for `Nc1ncccc1CN1CCC(n2cnc3c(C4=CCOCC4)nc(-c4cncc(O)c4)nc32)CC1` [Compound 34, 5-[9-{1-[(2-aminopyridin-3-yl)methyl]piperidin-4-yl}-6-(3,6-dihydro-2H-pyran-4-yl)-9H-purin-2-yl]pyridin-3-ol] in this work.
An IC50 (PI3 Kinase γ) of 2.48 µM, an IC50 (PI3 Kinase α) of 0.506 µM and an IC50 (Human mTOR) of 2.8 µM were found for `COc1ncccc1CN1CCC(n2cnc3c(C4=CCOCC4)nc(-c4cncc(O)c4)nc32)CC1` [Compound 36, 5-[6-(3,6-dihydro-2H-pyran-4-yl)-9-{1-[(2-methoxypyridin-3-yl)methyl]piperidin-4-yl}-9H-purin-2-yl]pyridin-3-ol] in this work.
An IC50 (PI3 Kinase γ) of 0.719 µM, an IC50 (PI3 Kinase α) of 0.437 µM and an IC50 (Human mTOR) of 1.6 µM were found for `Oc1cncc(-c2nc(C3=CCOCC3)c3ncn(C4CCN(Cc5ccc(Cl)nc5)CC4)c3n2)c1` [Compound 37, 5-[9-{1-[(6-chloropyridin-3-yl)methyl]piperidin-4-yl}-6-(3,6-dihydro-2H-pyran-4-yl)-9H-purin-2-yl]pyridin-3-ol] in this work.
An IC50 (PI3 Kinase γ) of 0.543 µM, an IC50 (PI3 Kinase α) of 0.152 µM and an IC50 (Human mTOR) of 0.19 µM were found for `O=c1[nH]c2nc(-c3cccc(O)c3)nc(C3=CCOCC3)c2[nH]1` [Compound 38, 6-(3,6-dihydro-2H-pyran-4-yl)-2-(3-hydroxyphenyl)-7,9-dihydro-8H-purin-8-one] in this work.
An IC50 (PI3 Kinase γ) of 0.819 µM, an IC50 (PI3 Kinase α) of 0.524 µM and an IC50 (Human mTOR) of 1.3 µM were found for `O=c1[nH]c2nc(-c3cccc(CO)c3)nc(C3=CCOCC3)c2[nH]1` [Compound 39, 6-(3,6-dihydro-2H-pyran-4-yl)-2-[3-(hydroxymethyl)phenyl]-7,9-dihydro-8H-purin-8-one] in this work.
An IC50 (PI3 Kinase γ) of 3.16 µM, an IC50 (PI3 Kinase α) of 0.54 µM and an IC50 (Human mTOR) of 1.4 µM were found for `Oc1cccc(-c2nc(C3=CCOCC3)c3ncn(C4CCNCC4)c3n2)c1` [Compound 40, 3-[6-(3,6-dihydro-2H-pyran-4-yl)-9-piperidin-4-yl-9H-purin-2-yl]phenol] in this work.
An IC50 (PI3 Kinase γ) of 3.11 µM, an IC50 (PI3 Kinase α) of 0.543 µM and an IC50 (Human mTOR) of 0.13 µM were found for `CNC(=O)Nc1ccc(-c2nc(C3=CCOCC3)c3ncn(C4CCN(Cc5ccc[nH]5)CC4)c3n2)cc1` [Compound 41, 1-(4-{6-(3,6-dihydro-2H-pyran-4-yl)-9-[1-(1H-pyrrol-2-ylmethyl)piperidin-4-yl]-9H-purin-2-yl}phenyl)-3-methylurea] in this work.
For `OCc1cccc(-c2nc(C3=CCOCC3)c3ncn(C4CCNCC4)c3n2)c1` [Compound 43, {3-[6-(3,6-dihydro-2H-pyran-4-yl)-9-piperidin-4-yl-9H-purin-2-yl]phenyl}methanol], the IC50 (PI3 Kinase γ) was 2.06 µM, the IC50 (PI3 Kinase α) was 0.574 µM and the IC50 (Human mTOR) was > 4 µM.
An IC50 (PI3 Kinase γ) of 2.63 µM, an IC50 (PI3 Kinase α) of 0.628 µM and an IC50 (Human mTOR) of 4.8 µM were found for `Oc1cncc(-c2nc(C3=CCOCC3)c3ncn(C4CCNCC4)c3n2)c1` [Compound 44, 5-[6-(3,6-dihydro-2H-pyran-4-yl)-9-piperidin-4-yl-9H-purin-2-yl]pyridin-3-ol] in this work.
`OCc1cccc(-c2nc(C3=CCOCC3)c3ncn(CCN4CCCCC4)c3n2)c1` [Compound 45, {3-[6-(3,6-dihydro-2H-pyran-4-yl)-9-(2-piperidin-1-ylethyl)-9H-purin-2-yl]phenyl}methanol] was tested, and the IC50 (PI3 Kinase γ) was 9 µM, the IC50 (PI3 Kinase α) was 1.35 µM and the IC50 (Human mTOR) was > 4 µM.
For `Oc1cccc(-c2nc(C3=CCOCC3)c3ncn(CCN4CCCCC4)c3n2)c1` [Compound 46, 3-[6-(3,6-dihydro-2H-pyran-4-yl)-9-(2-piperidin-1-ylethyl)-9H-purin-2-yl]phenol], the IC50 (PI3 Kinase γ) was 15 µM, the IC50 (PI3 Kinase α) was 1.35 µM and the IC50 (Human mTOR) was > 4 µM.
An IC50 (PI3 Kinase γ) of 1.5 µM, an IC50 (PI3 Kinase α) of 0.998 µM and an IC50 (Human mTOR) of 0.23 µM were found for `Oc1cccc(-c2nc(C3=CCOCC3)c3nnn(C4CCN(Cc5ccccc5)CC4)c3n2)c1` [Compound 47, 3-[3-(1-benzylpiperidin-4-yl)-7-(3,6-dihydro-2H-pyran-4-yl)-3H-[1,2,3]triazolo[4,5-d]pyrimidin-5-yl]phenol] in this work.
An IC50 (PI3 Kinase γ) of 0.257 µM, an IC50 (PI3 Kinase α) of 0.093 µM and an IC50 (Human mTOR) of 0.032 µM were found for `Oc1cccc(-c2nc(C3=CCOCC3)c3nn[nH]c3n2)c1` [Compound 48, 3-[7-(3,6-dihydro-2H-pyran-4-yl)-3H-[1,2,3]triazolo[4,5-d]pyrimidin-5-yl]phenol] in this work.
An IC50 (PI3 Kinase γ) of 1.04 µM, an IC50 (PI3 Kinase α) of 0.39 µM and an IC50 (Human mTOR) of 0.34 µM were found for `OCc1cccc(-c2nc(C3=CCOCC3)c3nn[nH]c3n2)c1` [Compound 49, {3-[7-(3,6-dihydro-2H-pyran-4-yl)-3H-[1,2,3]triazolo[4,5-d]pyrimidin-5-yl]phenyl}methanol] in this work.
An IC50 (PI3 Kinase γ) of 0.1 µM, an IC50 (PI3 Kinase α) of 0.078 µM and an IC50 (Human mTOR) of 0.36 µM were found for `Oc1cncc(-c2nc(C3=CCOCC3)c3nn[nH]c3n2)c1` [Compound 50, 5-[7-(3,6-dihydro-2H-pyran-4-yl)-3H-[1,2,3]triazolo[4,5-d]pyrimidin-5-yl]pyridin-3-ol] in this work.
